Here are results for seven compounds from ChEMBL document CHEMBL1154406, “Can the Etest correctly determine the MICs of beta-lactam and cephalosporin antibiotics for beta-lactamase-negative ampicillin-resistant Haemophilus influenzae?” (2007).

What all share (type): functional
In assay [1] the test system is Haemophilus influenzae. The experiment in a line: Antimicrobial activity against beta-lactamase negative ampicillin-resistant Haemophilus influenzae by E-test.
Assay [2] relates to Haemophilus influenzae. The experiment in a line: Antimicrobial activity against beta-lactamase negative ampicillin-susceptible Haemophilus influenzae by E-test.
Assay [3] concerns Haemophilus influenzae. The experiment in a line: Antimicrobial activity against beta-lactamase positive ampicillin-resistant Haemophilus influenzae by E-test.
In assay [4] the test system is Haemophilus influenzae. The experiment in a line: Antimicrobial activity against beta-lactamase negative ampicillin-resistant Haemophilus influenzae by broth microdilution method.
For assay [5], the system named is Haemophilus influenzae. The experiment in a line: Antimicrobial activity against beta-lactamase negative ampicillin-susceptible Haemophilus influenzae by broth microdilution method.
The subject of assay [6] is Haemophilus influenzae. The experiment in a line: Antimicrobial activity against beta-lactamase positive amoxicillin/clavulanate-resistant Haemophilus influenzae by broth microdilution method.
In assay [7] the test system is Haemophilus influenzae. The experiment in a line: Antimicrobial activity against beta-lactamase positive ampicillin-resistant Haemophilus influenzae by broth microdilution method.
In assay [8] the test system is Haemophilus influenzae. The experiment in a line: Antimicrobial activity against beta-lactamase positive amoxicillin/clavulanate-resistant Haemophilus influenzae by E-test.
Assay [9] has as its system Haemophilus influenzae. The experiment in a line: Antimicrobial activity against Haemophilus influenzae expressing mutant ftsI gene.

In brackets after ≈: the same amount, converted by molar mass.

`CC1(C)S[C@@H]2[C@H](NC(=O)[C@H](N)c3ccccc3)C(=O)N2[C@H]1C(=O)O` [AMPICILLIN]: the MIC in assay [1] amounted to 1 µg/mL (≈ 2.86 µM); in [2], 0.25 µg/mL (≈ 0.715 µM); in assay [3] it was 4 µg/mL (≈ 11.4 µM); in assay [4], 1 µg/mL (≈ 2.86 µM); in assay [5], 0.25 µg/mL (≈ 0.715 µM); in assay [6], 256 µg/mL. In addition, the MIC in assay [7] worked out at 32 µg/mL (≈ 91.6 µM); in assay [8], 256 µg/mL.

Consider `N[C@@H](C(=O)N[C@@H]1C(=O)N2C(C(=O)O)=C(Cl)CS[C@H]12)c1ccccc1` [CEFACLOR ANHYDROUS], for which the MIC in assay [9] is 4 µg/mL (≈ 10.9 µM).

`C=CC1=C(C(=O)O)N2C(=O)[C@@H](NC(=O)/C(=N\OCC(=O)O)c3csc(N)n3)[C@H]2SC1` [CEFIXIME] came in with an MIC in assay [9] of 0.03 µg/mL (≈ 0.0662 µM).

Turning to `CO/N=C(\C(=O)N[C@@H]1C(=O)N2C(C(=O)O)=C(CSc3nc(=O)c(O)nn3C)CS[C@H]12)c1csc(N)n1` [CEFTRIAXONE], the MIC in [1] is 0.012 µg/mL (≈ 0.0216 µM); in [2], 0.008 µg/mL (≈ 0.0144 µM); in assay [3] it was 0.008 µg/mL (≈ 0.0144 µM); in assay [4] it was 0.06 µg/mL (≈ 0.108 µM); in assay [5] it was < 0.06 µg/mL; in assay [8], 0.25 µg/mL.

Turning to `CO/N=C(\C(=O)N[C@@H]1C(=O)N2C(C(=O)O)=C(COC(N)=O)CS[C@H]12)c1ccco1` [CEFUROXIME], the MIC in assay [9] is 0.5 µg/mL (≈ 1.18 µM).

In the case of `C[C@H]1COc2c(N3CCN(C)CC3)c(F)cc3c(=O)c(C(=O)O)cn1c23.C[C@H]1COc2c(N3CCN(C)CC3)c(F)cc3c(=O)c(C(=O)O)cn1c23.O` [LEVOFLOXACIN], the MIC in assay [1] is < 0.016 µg/mL; in [2] it was < 0.06 µg/mL; in [4], 1 µg/mL; in [5], < 0.06 µg/mL.

Turning to `C[C@@H](O)[C@H]1C(=O)N2C(C(=O)O)=C(S[C@@H]3CN[C@H](C(=O)N(C)C)C3)[C@H](C)[C@H]12` [MEROPENEM], the MIC in assay [1] is 0.125 µg/mL (≈ 0.326 µM); in assay [2] it was 0.064 µg/mL (≈ 0.167 µM); in [3], 0.064 µg/mL (≈ 0.167 µM); in assay [5], < 0.06 µg/mL; in assay [8] it was 0.125 µg/mL.
